In data set [1] the target is T1, BgaC β-galactosidase (BAD_1582) (Bifidobacterium adolescentis, UniProt A1A3T0). In words: purified enzyme; glucose-release kinetics (Km […]) and competitive inhibition of ONPG hydrolysis. Format: biochemical.
The target of data set [2] is T1, BgaC β-galactosidase (BAD_1582). Kind of data set: purified enzyme hydrolysis, specific activity, absorbance at […] nm; TLC. In kind it is biochemical.
Substrate in the data set “purified protein”: O=[N+]([O-])c1ccccc1O[C@@H]1O[C@H](CO)[C@H](O)[C@H](O)[C@H]1O
In words: purified protein. The note with it: divalent metal ion (Mg2+ gives maximum activity) enzyme active site.

What is called Ki is the equilibrium dissociation constant of an inhibitor or competing ligand from its target. A lower Ki goes with higher affinity. In the case of `OC[C@H]1O[C@@H](O[C@H]2[C@H](O)[C@@H](O)C(O)O[C@@H]2CO)[C@H](O)[C@@H](O)[C@H]1O` (stereo partly drawn) [lactose], in data set [1], the Ki stood at 100 µM.
`O=[N+]([O-])c1ccc(O[C@@H]2O[C@H](CO)[C@H](O)[C@H](O)[C@H]2O)cc1` [pNPG]: the “purified enzyme hydrolysis, specific activity, absorbance at 420 nm; TLC” value in data set [2] was 112 µmol/min/mg.

B1: BgaC β-galactosidase (BAD_1582) (Bifidobacterium adolescentis ATCC 15703) (protein)
chain: MADTAELAIVHATTASASWLTDPTVFAANRKPAHSSHRYVIGETREPKQSLDGEWKVRIEQARNVDVESAPFAAVDFEDGDFGAIEVPGHLQMAGYLKNKYVNIQYPWDGHEDPQAPNIPENNHVAIYRRRFALDAQLARTLENDGTVSLTFHGAATAIYVWLDGTFVGYGEDGFTPSEFDVTEALRNGNGNAADSPEAEHTLTVACYEYSSASWLEDQDFWRLHGLFRTVELAAQPHTHVETVQLEADYTAADTAGTADTAELNAALTLRNPADAMTIESTLRDGDGNVVWESTQACNGEIALNSGKMTNIAPWSAESPTLYTLTVRVVGHDGAIIETVTQKIGFRTFRIENGIMTINGKRIVFKGADRHEFDAKRGRAITREDMLSDVVFCKRHNINAIRTSHYPNQEYWYDLCDEYGLYLIDETNMETHGTWVANNVERPEDGIPGSRPEWEGACVDRINSMMRRDYNHPSVLIWSLGNESSAGEVFRAMYRHAHTIDPNRPVHYEGSVHMREFEDVTDIESRMYAHADEIERYLNDGSPAHTDGPKKPYISCEYMHAMGNSCGNMDEYTALERYPMYQGGFIWDFIDQAIETKLPDGTTRMCYGGDFGDRPSDYEFSGDGLLFADRTPSPKAQEVKQLYANVKIAVSVDEARITNDNLFVSTGDYRFVLRILADGKPVWSTTRRFDVAAGESASFEVDWPVDDYRSNAEELVLEVSQQLGNACDWAPAGYELAFGQCVVAGAKTTADAVDAAGAPADGTVTLGRWNAGVRGQGREALFSRTQGGMVSYTFGEREFVLRRPSITTFRPLTDNDRGAGHAFERAAWAVAGKYARCVDCAIANRGENAVEATYTYELAIPQRTKVTVRYVADTAGLVSLDVEYPGEKNGDLPTIPAFGIEWALPVEYANLRFYGAGPEETYADRRHAKLGVWSTTAGDDCAPYLLPQETGNHEDVRWAEITDDSGHGVRVKRGAGAKPFAMSLLPYSSTMLEEALHQDELPKPRHMFLRLLAAQMGVGGDDSWMSPVHEQYQLPADQPLSLNVQLKLF
One may read the Km as the concentration of substrate that gives half-maximal velocity. Consider B1, for which the Km in “purified protein” worked out at 2500 µM.
